Laboratory results published in ChEMBL document CHEMBL1201862, “PubChem BioAssay data set” (2004).
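A five-concentration, 48-hour dose response in 96-well plates underlies each endpoint, interpolated linearly between surrounding concentrations. GI50 is the concentration that inhibits growth by half.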 Activity calls are given as the source filed them. No stated cut-off is given here; in the data, active = GI50 up to about 1.1 µM and inactive = higher.

Assays:
Experiment in all cases: NCI-60 cell line screen, 48 h
SNB-19 = test system: SNB-19
MOLT-4 = test system: MOLT-4
A549 = test system: A549
KM12 = test system: KM12
U-251 = test system: U-251
MDA-MB-231 = test system: MDA-MB-231
ACHN = test system: ACHN
MDA-MB-435 = test system: MDA-MB-435
DU-145 = test system: DU-145
OVCAR-8 = test system: OVCAR-8
SF-539 = test system: SF-539
SF-268 = test system: SF-268
SN12C = test system: SN12C
HT-29 = test system: HT-29
UACC-257 = test system: UACC-257
IGROV-1 = test system: IGROV-1
UO-31 = test system: UO-31
OVCAR-4 = test system: OVCAR-4
NCI-H23 = test system: NCI-H23
HCC 2998 = test system: HCC 2998

Measured: GI50

O=C1Nc2ccccc2S/C1=C\c1ccc(C(F)(F)F)cc1
inactive: SNB-19 > 100 µM | MOLT-4 > 100 µM | A549 > 100 µM | KM12 > 100 µM | U-251 > 100 µM | MDA-MB-231 > 100 µM | ACHN > 100 µM | MDA-MB-435 > 100 µM | DU-145 > 100 µM | OVCAR-8 > 100 µM | SF-539 > 100 µM | SF-268 > 100 µM | SN12C > 100 µM | HT-29 > 100 µM | UACC-257 > 100 µM | IGROV-1 > 100 µM | UO-31 94 µM | OVCAR-4 > 100 µM

CCC(=O)Nc1ccc(N2C(=O)C(Cl)C2c2ccc(SC)cc2)cc1 (stereo not drawn)
inactive: SNB-19 > 100 µM | MOLT-4 67.8 µM | A549 > 100 µM | NCI-H23 > 100 µM | HCC 2998 30.9 µM | KM12 > 100 µM | ACHN > 100 µM | MDA-MB-435 63.7 µM | DU-145 > 100 µM | OVCAR-8 > 100 µM | SF-539 26.9 µM | SF-268 60.3 µM | SN12C 50.2 µM | HT-29 > 100 µM | UACC-257 44.9 µM | IGROV-1 94.2 µM | UO-31 > 100 µM | OVCAR-4 33.5 µM

Clc1ccc(C(c2ccc(Cl)cc2)c2cncnc2)cc1
inactive: SNB-19 18.1 µM | MOLT-4 20.6 µM | A549 20.5 µM | NCI-H23 15.9 µM | KM12 18.3 µM | U-251 17.3 µM | MDA-MB-231 17.7 µM | ACHN 19.2 µM | MDA-MB-435 13.7 µM | DU-145 17.5 µM | OVCAR-8 20.3 µM | SF-268 17.8 µM | SN12C 18.4 µM | HT-29 15.1 µM | UACC-257 19.3 µM | IGROV-1 16 µM | UO-31 11.9 µM | OVCAR-4 15.2 µM

CCN(CC)Cc1nc2sc3c(c2c(=O)n1-c1ccccc1)CCCC3
inactive: SNB-19 35.6 µM | MOLT-4 17.4 µM | A549 20.5 µM | NCI-H23 35.1 µM | HCC 2998 17.6 µM | KM12 46.3 µM | U-251 16.9 µM | MDA-MB-231 15.3 µM | ACHN 20 µM | DU-145 23 µM | OVCAR-8 17.5 µM | SF-268 21.1 µM | SN12C 19.5 µM | HT-29 12.9 µM | UACC-257 21.2 µM | IGROV-1 18.7 µM | UO-31 11.2 µM | OVCAR-4 15.6 µM

O=C(O)C/C(=C\c1ccco1)C(=O)O
inactive: SNB-19 > 100 µM | MOLT-4 > 100 µM | A549 > 100 µM | NCI-H23 > 100 µM | KM12 > 100 µM | U-251 > 100 µM | MDA-MB-231 > 100 µM | ACHN > 100 µM | MDA-MB-435 > 100 µM | DU-145 > 100 µM | OVCAR-8 > 100 µM | SF-539 > 100 µM | SN12C > 100 µM | HT-29 > 100 µM | UACC-257 > 100 µM | IGROV-1 > 100 µM | UO-31 > 100 µM | OVCAR-4 > 100 µM

COC(=O)NC(C(F)(F)F)(C(F)(F)F)P1(=O)OCCCO1
inactive: SNB-19 25.5 µM | MOLT-4 17.1 µM | A549 38.5 µM | NCI-H23 20.2 µM | KM12 22.8 µM | U-251 13.1 µM | MDA-MB-231 25.3 µM | ACHN 21.4 µM | MDA-MB-435 17.2 µM | DU-145 53.8 µM | OVCAR-8 27.3 µM | SF-539 21.1 µM | SF-268 25.7 µM | SN12C 34.8 µM | HT-29 23.8 µM | IGROV-1 22.3 µM | UO-31 18.3 µM | OVCAR-4 32.6 µM

O=C1C(Cl)C(c2cc(Br)ccc2O)N1n1cnc2ccccc2c1=O (stereo not drawn)
inactive: SNB-19 14.5 µM | MOLT-4 2.75 µM | A549 26.9 µM | NCI-H23 16.5 µM | HCC 2998 17.4 µM | KM12 20.7 µM | U-251 10.7 µM | ACHN 11.8 µM | OVCAR-8 12.1 µM | SF-539 18.5 µM | SF-268 2.53 µM | SN12C 20 µM | HT-29 30.5 µM | UACC-257 10.5 µM | IGROV-1 17.5 µM | UO-31 7.4 µM | OVCAR-4 10.7 µM

CS(=O)(=O)OCCN1CCC2(CC1)SSC1(CCN(CCOS(C)(=O)=O)CC1)S2
inactive: SNB-19 69.3 µM | MOLT-4 31.8 µM | A549 > 100 µM | NCI-H23 60 µM | KM12 > 100 µM | U-251 72.6 µM | MDA-MB-231 > 100 µM | ACHN 33.5 µM | MDA-MB-435 > 100 µM | OVCAR-8 > 100 µM | SF-539 27.7 µM | SF-268 22.3 µM | SN12C 43 µM | HT-29 50.5 µM | UACC-257 > 100 µM | IGROV-1 50.8 µM | UO-31 45 µM | OVCAR-4 62.1 µM
